Test results reported in publication PMC11784145, “Efficacy and in vitro pharmacological assessment of novel N-hydroxypyridinediones as hepatitis B virus ribonuclease H inhibitors” (Antimicrobial Agents and Chemotherapy, 2024).

Columns and labels:
plasma proteins = experiment: Plasma protein binding, rapid equilibrium dialysis; type: in vitro ADME, bovine; conditions: 10 µM compound, DMEM-F12 with 10% FBS (0.25 mg/mL BSA), 4 h, 37°C
Experimental: Plasma protein binding was performed using the Pierce rapid equilibrium dialysis device (Thermo Fisher) per the manufacturer’s instructions, as described ([27]). Briefly, the sample wells contained DMEM-F12 supplemented with 10% FBS spiked with 10 µM compound, and the buffer wells contained phosphate-buffered saline (PBS). The plate was incubated for 4 h at 37°C with shaking, after which 50 µL was retrieved from the buffer and sample wells and added to ice-cold acetonitrile and the internal standard described above. Samples were matrix-matched with PBS supplemented with 10% FBS or PBS alone, respectively, and centrifuged at 4,000 × g for 5 min to pellet plasma proteins. The supernatants were analyzed by LCMS/MS and percent compound bound was determined, as described previously ([27]).

[1] = Parallel artificial membrane permeability assay (PAMPA); type: in vitro ADME
Experimental: Compound Papp values were determined by normalizing the experimental compound absorbance to the compounds’ absorbances at equilibrium, membrane porosity, buffer volume, and time (s). Two or more replicate assays were obtained on separate days for each pH.

CYP2D6 = target: T1, CYP2D6 (Homo sapiens, UniProt P10635); experiment: Cytochrome P450 inhibition, Vivid 2D6 EOMCC Blue kit; type: in vitro ADME; conditions: dose-response 50 µM to 3 nM; mean ± SD
T1 construct: purchased Thermo Fisher Vivid 2D6 EOMCC Blue
Experimental: (§1) Compound inhibition of Cytochrome P (CYP) 3A4, 2C9, and 2D6 was determined using Vivid CYP450 screening kits (Thermo Fisher) according to the manufacturer’s instructions, as described previously ([27]). The kits employed were: Vivid 3A4 DBOMF Green, 2C9 BOMF Green, and 2D6 EOMCC Blue. Reactions were initiated by addition of the fluorophore-conjugated substrates with Vivid NADP^+ and were conducted at 37°C using either a Biotek Synergy HTX multi-mode plate reader with 485/20 nm excitation and 520/20 nm emission filters (green-fluorescent substrate), or a Tecan Spark plate reader with monochromator settings at 415/20 nm excitation and 460/20 nm emission (blue-fluorescent substrate) defined by the Center Wavelength/band-pass values. Substrate cleavage was detected every 60 s.
(§2) Compounds were initially screened against each enzyme at 10 µM and maximum rates of fluorescence in RFU were calculated using the Biotek Gen5 v3.11 software. Percent inhibition of experimental compound reactions was normalized to the rate to DMSO vehicle reactions. Positive controls used were: CYP3A4—ketoconazole (Sigma Aldrich), CYP2C9—sulfaphenazole (Cayman Chemical), and CYP2D6—quinidine (Fisher Scientific). Dose-response curves were generated for compounds that inhibited an enzyme by ≥50% using titrated concentrations of compound (50 µM to 3 nM) or 1% DMSO. IC50 values were determined using the four-parameter log[inhibitor] versus response algorithm in GraphPad Prism. Qualitative screens and dose-response curves were each performed in triplicate on different days.

[2] = system: HBV replication (HBV plus-polarity DNA strand); experiment: HBV replication inhibition, strand preferential qPCR in hepDES19 cells; type: cell-based, hepatitis B virus; conditions: for EC50: 72 h exposure, HBV plus-polarity strand suppression, highest concentration tested 100 µM, mean ± SD, read-out: HepDES19 EC50
Experimental: HBV replication inhibition was measured in hepDES19 cells following 72 h compound exposure without compound replenishment. EC50 values were determined by HBV plus-polarity strand suppression using a strand preferential qPCR assay, as described previously ([28]). Three or more replicate values were obtained on different days.

HepDES19 cells = conditions: read-out: HepDES19 CC50; 72 h, MTS; highest concentration tested 100 µM; mean ± SD
Experimental: HepDES19 cells were plated on 96-well tissue culture-treated plates (Greiner) at 1.0 × 10^4 cells per well and incubated for 48 h. Cells were treated with titrated concentrations of compound or 1% DMSO vehicle for 72 h, and cellular viability was measured by 3-(4,5-dimethylthiazol-2-yl)−5-(3-carboxymethoxyphenyl)−2-(4-sulfophenyl)−2H-tetrazolium (MTS) assays, as described previously ([20]). […] Three or more replicate assays were done on different days.

[3] = Solubility limit, turbidimetric assay; type: physicochemical; conditions: upper limit 200 µM
Experimental: Solubility limits were determined by a turbidimetric assay, as described ([27]), with the solubility limit being defined as the compound concentration where light scattering began to rise. Two or more replicate assays were performed for each compound at each pH on different days.

Microsome stability = type: in vitro ADME, human; conditions: human, microsomes
Experimental: Human liver microsomes (gender pooled, 50 individuals) were purchased from BioIVT and stored at −80°C until use. […] Reactions were initiated by addition of 1.2 mM NADPH. […] Microsomal proteins were pelleted at 4,000 × g and the supernatant was analyzed via LCMS/MS. […] The ln percent remaining values were plotted against time, the negative slope was taken (k), and compound half-life (t1/2) was determined using ln2/k. Intrinsic clearance (Clint [µL/min/mg]) was calculated by (V × ln2)/t1/2, where V is the incubation volume (µL) divided by the protein concentration in the reaction (mg) ([31]).

CYP3A4 = target: T2, CYP3A4 (Homo sapiens, UniProt P08684); experiment: Cytochrome P450 inhibition, Vivid 3A4 DBOMF Green kit; type: in vitro ADME; conditions: 10 µM compound
T2 construct: purchased Thermo Fisher Vivid 3A4 DBOMF Green
Experimental: as §1
as §2, with “Dose-response curves were generated for compounds that inhibited an enzyme by ≥50% using titrated concentrations of compound (50 µM to 3 nM) or 1% DMSO.” left out, “Qualitative screens and dose-response curves were each performed in triplicate on different days.” left out

[4] = pH 5 (fed simulated intestinal fluid)
[5] = pH 6.5 (fasted simulated intestinal fluid)

T1 sequence (P10635 whole entry): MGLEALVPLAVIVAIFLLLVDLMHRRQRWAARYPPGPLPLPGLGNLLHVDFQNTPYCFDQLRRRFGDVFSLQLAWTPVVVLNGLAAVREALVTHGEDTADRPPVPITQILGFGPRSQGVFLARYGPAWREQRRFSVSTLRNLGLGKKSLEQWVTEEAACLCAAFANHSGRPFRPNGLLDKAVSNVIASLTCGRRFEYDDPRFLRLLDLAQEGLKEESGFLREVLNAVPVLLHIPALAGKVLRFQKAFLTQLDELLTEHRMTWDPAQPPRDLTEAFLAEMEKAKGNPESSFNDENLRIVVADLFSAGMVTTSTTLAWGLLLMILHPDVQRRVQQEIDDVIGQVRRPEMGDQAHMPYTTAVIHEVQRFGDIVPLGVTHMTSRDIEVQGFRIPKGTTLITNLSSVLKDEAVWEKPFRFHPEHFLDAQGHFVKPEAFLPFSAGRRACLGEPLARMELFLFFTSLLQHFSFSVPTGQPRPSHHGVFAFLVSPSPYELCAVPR
T2 sequence (P08684 whole entry): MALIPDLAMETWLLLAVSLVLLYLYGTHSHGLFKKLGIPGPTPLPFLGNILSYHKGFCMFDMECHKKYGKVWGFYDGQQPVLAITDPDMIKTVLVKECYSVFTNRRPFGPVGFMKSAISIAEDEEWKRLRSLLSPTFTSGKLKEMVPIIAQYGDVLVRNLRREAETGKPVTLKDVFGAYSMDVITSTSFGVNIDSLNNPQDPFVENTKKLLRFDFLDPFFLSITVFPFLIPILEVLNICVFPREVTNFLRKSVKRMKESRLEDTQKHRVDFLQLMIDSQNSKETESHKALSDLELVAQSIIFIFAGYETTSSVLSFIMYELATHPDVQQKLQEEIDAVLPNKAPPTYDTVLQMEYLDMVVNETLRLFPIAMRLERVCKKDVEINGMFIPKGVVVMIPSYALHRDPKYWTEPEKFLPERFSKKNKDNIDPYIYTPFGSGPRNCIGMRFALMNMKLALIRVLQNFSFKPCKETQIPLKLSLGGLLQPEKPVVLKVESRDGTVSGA

Compound | Avg Papp (PAMPA) ([1]; FeSSIF pH 5) [×10⁻⁶ cm/s] | Interpretation (PAMPA Papp) ([1]; FeSSIF pH 5) | Papp 1 (PAMPA) ([1]; FeSSIF pH 5, replicate 1) [×10⁻⁶ cm/s] | Papp 2 (PAMPA) ([1]; FeSSIF pH 5, replicate 2) [×10⁻⁶ cm/s] | Avg Papp (PAMPA) ([1]; pH 7.4) [×10⁻⁶ cm/s] | Interpretation (PAMPA Papp) ([1]; pH 7.4) | Papp 1 (PAMPA) ([1]; pH 7.4, replicate 1) [×10⁻⁶ cm/s] | Papp 2 (PAMPA) ([1]; pH 7.4, replicate 2) [×10⁻⁶ cm/s] | HepDES19 SI (CC50/EC50) [2] | EC50 [2] [µM] | CC50 (HepDES19 cells) [µM] | Average Sol (solubility limit) [3, 4] [µM] | Sol 1 (solubility limit) ([3]; pH 5, replicate 1) [µM] | Sol 2 (solubility limit) ([3]; pH 5, replicate 2) [µM] | Average Sol (solubility limit) [3, 5] [µM] | Sol 1 (solubility limit) ([3]; pH 6.5, replicate 1) [µM] | Sol 2 (solubility limit) ([3]; pH 6.5, replicate 2) [µM] | Average Sol (solubility limit) ([3]; pH 7.4 (DMEM-F12 with 10% FBS)) [µM] | Sol 1 (solubility limit) ([3]; pH 7.4, replicate 1) [µM] | Sol 2 (solubility limit) ([3]; pH 7.4, replicate 2) [µM] | also measured
Nc1ccn([C@@H]2CS[C@H](CO)O2)c(=O)n1 [Lamivudine, lamivudine, reference compound] |  |  |  |  |  |  |  |  |  |  |  |  |  |  |  |  |  |  |  |  | Percent bound (plasma proteins): 9.70 ± 11.3%; Percent bound (plasma proteins; listed as lamivudine): 10%
CC(=NOCc1cccc(Cl)c1)c1c(C)cc(=O)n(O)c1O [Compound 1719] | 72.6 | H (H: Papp > 1*10-6) | 48.6 | 78.8 | 2.9 | H (H: Papp > 1*10-6) | 2.82 | 2.99 | 34.5 | 1.35 ± 1.03 | 56.9 ± 31.1 | 150 | 100 | > 200 | > 200 | > 200 | > 200 | > 200 | > 200 | > 200 | Papp 3 (PAMPA) ([1]; FeSSIF pH 5, replicate 3): 90.3 ×10⁻⁶ cm/s; IC50 (CYP2D6): 11.2 ± 3.79 µM
CC(=NOCc1cccc(Br)c1)c1c(C)cc(=O)n(O)c1O [Compound 1621] | 26.3 | H (H: Papp > 1*10-6) | 31.7 | 20.9 | 4.53 | H (H: Papp > 1*10-6) | 0.49 | 4.47 | 192 | 0.52 ± 0.33 | 78.5 ± 32.4 | > 200 | > 200 | > 200 | > 200 | > 200 | > 200 | > 200 | > 200 | > 200 | Papp 3 (PAMPA) ([1]; pH 7.4, replicate 3): 10.6 ×10⁻⁶ cm/s; Papp 4 (PAMPA) ([1]; pH 7.4, replicate 4): 0.488 ×10⁻⁶ cm/s; Papp 5 (PAMPA) ([1]; pH 7.4, replicate 5): 6.7 ×10⁻⁶ cm/s; Papp 6 (PAMPA) ([1]; pH 7.4, replicate 6): 4.44 ×10⁻⁶ cm/s; IC50 (CYP2D6): 19.5 µM
CC(=NOCc1ccc(OCc2ccc(C(C)(C)C)cc2)cc1)c1c(C)cc(=O)n(O)c1O [Compound 1808] |  | H (H: Papp > 1*10-6) | 32.2 | 9.19 | 2.97 | H (H: Papp > 1*10-6) | 3.7 | 2.6 | 6.24 | 6 ± 0.17 | 38.2 ± 10.2 | > 200 | > 200 | > 200 | > 200 | > 200 | > 200 | 100 | 100 | 100 | Papp 3 (PAMPA) ([1]; FeSSIF pH 5, replicate 3): 81.4 ×10⁻⁶ cm/s; Papp 4 (PAMPA) ([1]; FeSSIF pH 5, replicate 4): 95.8 ×10⁻⁶ cm/s; Papp 3 (PAMPA) ([1]; pH 7.4, replicate 3): 2.6 ×10⁻⁶ cm/s; Clearance (intrinsic clearance, Clint) (Microsome stability): 10.1 µL/min/mg; Half-life (Microsome stability): >30 min; Percent inhibition of CYP3A4 (CYP3A4): ~ 42%
